Data: US20130096145A1, “Use of 1H-quinazoline-2,4-diones” (Novartis AG, priority 2010, published 2013)

Legend:
[1] = system: OF1 mice; test: Murine maximal electroshock test (MES Test); format: in vivo; conditions: 1 h; for MES-Test (1 h, po) protection @50: percentage of protected mice (5 per condition) @50, p.o.
Experimental: (§1) Compounds of the invention were tested in OF1 mice using the maximal electroshock test (MES Test) described in detail by Schmutz et al., Naunyn-Schmiedeberg's Arch Pharmacol 1990, 342, 61-66. Briefly, generalized tonic-clonic convulsions of the hind extremities were induced by passing electrical current through temporal electrodes (50 Hz, 18 mA, 0.2s). […] 30 mg/kg carbamazepine was used as a positive control; mice were classified as protected by a compound if the duration of the seizure lasted only 3 second or less. Five mice were used for each treatment condition and the percentage of protected mice was used as readout (i.e. a compound could give 0%, 20%, 40%, 60%, 80% or 100% protection). Compounds of the invention were given at a dose of 50 mg/kg, p.o., 1 hour prior to induction of convulsions (i.e. “pre-treatment time -1 h”). ED50 values (ED: effective dose) were calculated using GraphPad Prism, v4.02. 15 s after shock administration, mouse blood was collected for determination of compounds' blood exposure.

[2] = system: mouse; test: Oral bioavailability: audiogenic mouse test and/or MES test; format: in vivo; conditions: oral administration
Experimental: The oral bioavailability was tested using the audiogenic mouse test (Audiogenic seizures, R. L. Collins; Chapter 14, pages: 347-372. In: Experimental Models of Epilepsy; By: Pupura, Penry, Tower, Woodbury, Walter, Raven Press, New York, 1972. Standard Book Number: 0-911216-26-X) and/or the MES test.
as §1

With `CCc1cc2[nH]c(=O)n(NS(C)(=O)=O)c(=O)c2cc1-c1ccnn1C(C)C` [Compound C-6, N-[7-Ethyl-6-(2-isopropyl-2H-pyrazol-3-yl)-2,4-dioxo-1,4-dihydro-2H-quinazolin-3-yl]-methanesulfonamide] the “MES-Test (1 h, po) protection @50” value [1] was 20% @50 and the “In vivo orally active” value [2] was “yes”.

`CC(C)c1cc2[nH]c(=O)n(NS(C)(=O)=O)c(=O)c2cc1-c1ccnn1C(C)C` [Compound C-8, N-[7-Isopropyl-6-(2-isopropyl-2H-pyrazol-3-yl)-2,4-dioxo-1,4-dihydro-2H-quinazolin-3-yl]-methanesulfonamide] was tested, and the “MES-Test (1 h, po) protection @50” value [1] was 40% @50 and the “In vivo orally active” value [2] was “yes”.

For `Cn1nccc1-c1cc2c(=O)n(NS(C)(=O)=O)c(=O)[nH]c2cc1C(C)(F)F` [Compound C-15, N-[7-(1,1-difluoro-ethyl)-6-(2-methyl-2H-pyrazol-3-yl)-2,4-dioxo-1,4-dihydro-2H-quinazolin-3-yl]-methanesulfonamide], the “MES-Test (1 h, po) protection @20” value ([1]; percentage of protected mice (5 per condition) @20, p.o.) was 80% @20 and the “In vivo orally active” value [2] was “Yes”.
